Test results taken from US10011597B2 (APOGLYX AB, priority 2014, dated 2018).

Molecular target: T1, human aquaporin 9 (Homo sapiens, UniProt O43315)
T1 construct: expressed in transfected cells; host or cells: Human AQP9 cell line with tetracycline added to the medium
T1 sequence (O43315 1-295): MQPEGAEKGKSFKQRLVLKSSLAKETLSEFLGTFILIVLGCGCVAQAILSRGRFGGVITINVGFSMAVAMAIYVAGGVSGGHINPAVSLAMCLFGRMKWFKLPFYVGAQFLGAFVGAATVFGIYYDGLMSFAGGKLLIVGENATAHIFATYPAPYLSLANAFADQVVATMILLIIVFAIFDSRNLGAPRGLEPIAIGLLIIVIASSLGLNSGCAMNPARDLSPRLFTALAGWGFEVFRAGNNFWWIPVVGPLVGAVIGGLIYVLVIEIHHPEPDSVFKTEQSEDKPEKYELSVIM
Test: Calcein quenching fluostar assay
Assay type: cell-based
Details: inhibition of human aquaporin 9; Human AQP9 cell line, tetracyclin-induced; 25° C.
Method: Calcein Quenching Fluostar Assay
A calcein quenching fluostar assay was performed in order to investigate the biological activity of the newly synthesized examples 1 to 57. This type of assay is disclosed in J. Biol. Chem., 2011, 286, 44319-44325 and Am. J. Physiol. Renal Physiol. (2010), 298, F224-230.
1) Two days prior to commencement of the assay, seed 10,000 cells/well of 96 well black clear bottom plate (Greiner Poly-lysin plate). A 1:1 mix of Dulbecco's Modified Eagle's Medium:Nutrient Mixture F-12 (DMEM: F12) was obtained from Gibco. Tetracycline stock of 5 mg/ml in 96% ethanol is used. Medium:DMEM/F12/10% Donor Bovine Serum, Human AQP9 cell line+1:270,000 tetracyclin, mouse AQP9 cell line+1:2,700,000 tetracycline.
2) Day of assay: Flick/slam off the medium and add 50 μl/well of loading solution: 5 ml DMEM/F12/10% Donor Bovine Serum, 25 μl Calcein AM—from freshly dissolved aliquot in 50 μl DMSO (VWR #734-1434), and 100 μl Probenecid.
3) Incubate the well for 90 minutes at 37° C.
4) Perform one wash with 75 μl wash buffer.
5) Add 75 μl of an example compound prepared in wash buffer per well.
Example compounds are prepared in 500 μl U bottom PP plates (NUNC). […] Substance in DMSO are added to row A; 180 μl of wash buffer+1% DMSO are added to rows B-H. 90 μl from row A are transferred and mixed with all other wells (up to row G) to make a 3-fold dilution series.
6) Assay in FLUOstar Optima at 25° C. Settings buffer addition at 135 μl seconds, add 75 μl/well, record time course for 30 seconds, add sucrose buffer 3.6 seconds into recording.
7) Normalization to initial in Excel.
8) Fit to “exponential decay” function in GraphPad Prism 5.0, then arrange half live shrinking values according to wells and fit dose-response curves.

| Structure (SMILES) | IC50 [nM] |
| --- | --- |
| CCn1c(SCC(=O)Nc2nnc(-c3ccc(F)cc3)s2)nnc1-c1cccc(C)c1 [Example 23] | 372 |
| Cn1c(SCC(=O)Nc2nnc(-c3ccc(F)cc3)s2)nnc1-c1ccncc1 [Example 9, N-[5-(4-fluorophenyl)-1,3,4-thiadiazol-2-yl]-2-{[4-methyl-5-(pyridin-4-yl)-4H-1,2,4-triazol-3-yl]sulfanyl}acetamide] | 112 |
| CCn1c(SCC(=O)Nc2nnc(-c3ccc(OC)cc3)s2)nnc1-c1ccccc1Cl [Example 19, 2-{[5-(2-Chlorophenyl)-4-ethyl-4H-1,2,4-triazol-3-yl]sulfanyl}-N-[5-(4-methoxyphenyl)-1,3,4-thiadiazol-2-yl]acetamide] | 233 |
| CCn1c(SCC(=O)Nc2nnc(-c3ccc(S(C)(=O)=O)cc3)s2)nnc1-c1ccc(F)cc1 [Example 53, 2-{[4-ethyl-5-(4-fluorophenyl)-4H-1,2,4-triazol-3-yl]sulfanyl}-N-[5-(4-methanesulfonylphenyl)-1,3,4-thiadiazol-2-yl]acetamide] | 134 |
| CCn1c(SCC(=O)Nc2nnc(-c3ccc(OC)cc3)s2)nnc1-c1ccccn1 [Example 41, 2-{[4-ethyl-5-(pyridin-2-yl)-4H-1,2,4-triazol-3-yl]sulfanyl}-N-[5-(4-methoxyphenyl)-1,3,4-thiadiazol-2-yl]acetamide] | 260 |
| COc1ccc(-c2nnc(NC(=O)CSc3nnc(-c4ccc(F)cc4)n3C)s2)cc1 [Example 6, 2-{[5-(4-Fluorophenyl)-4-methyl-4H-1,2,4-triazole-3-yl]sulfanyl}-N-[5-(4-methoxyphenyl)-1,3,4-thiadizole-2-yl]-acetamide] | 253 |
| CCn1c(SCC(=O)Nc2nnc(-c3ccc(OC)cc3)s2)nnc1-c1cccc(OC)c1 [Example 22, 2-{[4-Ethyl-5-(3-methoxyphenyl)-4H-1,2,4-triazol-3-yl]sulfanyl}-N-[5-(4-methoxyphenyl)-1,3,4-thiadiazol-2-yl]acetamide] | 160 |
| CCn1c(SCC(=O)Nc2nnc(-c3ccc(S(C)(=O)=O)cc3)s2)nnc1-c1cccnc1 [Example 57, 2-{[4-ethyl-5-(pyridin-3-yl)-4H-1,2,4-triazol-3-yl]sulfanyl}-N-[5-(4-methanesulfonylphenyl)-1,3,4-thiadiazol-2-yl]acetamide] | 133 |
| CCn1c(SCC(=O)Nc2nnc(-c3ccc(OC)c(F)c3)s2)nnc1-c1ccc(F)cc1 [Example 45, 2-{[4-ethyl-5-(4-fluorophenyl)-4H-1,2,4-triazol-3-yl]sulfanyl}-N-[5-(3-fluoro-4-methoxyphenyl)-1,3,4-thiadiazol-2-yl]acetamide] | 182 |
| CCn1c(SCC(=O)Nc2nnc(-c3ccc(OC)cc3)s2)nnc1-c1cccnc1 [Example 20, 2-{[4-Ethyl-5-(pyridin-3-yl)-4H-1,2,4-triazol-3-yl]sulfanyl}-N-[5-(4-methoxyphenyl)-1,3,4-thiadiazol-2-yl]acetamide] | 56 |
| COc1ccc(-c2nnc(NC(=O)CSc3nnc(-c4ccncc4)n3C)s2)cc1 [Example 10, N-[5-(4-methoxyphenyl)-1,3,4-thiadiazol-2-yl]-2-{[4-methyl-5-(pyridin-4-yl)-4H-1,2,4-triazol-3-yl]sulfanyl}acetamide] | 37 |
| CCn1c(SCC(=O)Nc2nnc(-c3ccc(OC)cc3)s2)nnc1-c1ccccc1C [Example 13, 2-{[4-Ethyl-5-(2-methylphenyl)-4H-1,2,4-triazol-3-yl]sulfanyl}-N-[5-(4-methoxyphenyl)-1,3,4-thiadiazol-2-yl]acetamide] | 323 |
| CCn1c(SCC(=O)Nc2nnc(-c3ccc(OC)cc3)s2)nnc1-c1ccccc1F [Example 17, 2-{[4-Ethyl-5-(2-fluorophenyl)-4H-1,2,4-triazol-3-yl]sulfanyl}-N-[5-(4-methoxyphenyl)-1,3,4-thiadiazol-2-yl]acetamide] | 139 |
| CCCn1c(SCC(=O)Nc2nnc(-c3ccc(OC)cc3)s2)nnc1-c1ccc(F)cc1 [Example 32, 2-{[5-(4-Fluorophenyl)-4-propyl-4H-1,2,4-triazol-3-yl]sulfanyl}-N-[5-(4-methoxyphenyl)-1,3,4-thiadiazol-2-yl]acetamide] | 416 |
| Cn1c(SCC(=O)Nc2nnc(-c3ccccc3F)s2)nnc1-c1ccc(Cl)cc1 [Example 7, 2-{[5-(4-Chlorophenyl)-4-methyl-4H-1,2,4-triazole-3-yl]sulfanyl}-N-[5-(2-fluorophenyl)-1,3,4-thiadizole-2-yl]-acetamide] | 260 |
| CCn1c(SCC(=O)Nc2nnc(-c3cccc(OC)c3)s2)nnc1-c1ccc(F)cc1 [Example 5, 2-{[4-ethyl-5-(4-fluorophenyl)-4H-1,2,4-triazol-3-yl]sulfanyl}-N-[5-(3-methoxyphenyl)-1,3,4-thiadiazol-2-yl]acetamide] | 4830 |
| CCn1c(SCC(=O)Nc2nnc(-c3ccc(F)cc3)s2)nnc1-c1ccc(C)cc1 [Example 24, 2-{[4-Ethyl-5-(4-methylphenyl)-4H-1,2,4-triazol-3-yl]sulfanyl}-N-[5-(4-fluorophenyl)-1,3,4-thiadiazol-2-yl]acetamide] | 427 |
| CCn1c(SCC(=O)Nc2nnc(-c3ccc(F)cc3)s2)nnc1-c1ccccn1 [Example 29, 2-{[4-Ethyl-5-(pyridin-2-yl)-4H-1,2,4-triazol-3-yl]sulfanyl}-N-[5-(4-fluorophenyl)-1,3,4-thiadiazol-2-yl]acetamide] | 427 |
| COC(=O)CCn1c(SCC(=O)Nc2nnc(-c3ccc(OC)cc3)s2)nnc1-c1ccccc1 [Example 48, Methyl 3-{3-[({[5-(4-methoxyphenyl)-1,3,4-thiadiazol-2-yl]carbamoyl}methyl)sulfanyl]-5-phenyl-4H-1,2,4-triazol-4-yl}propanoate] | 117 |
| CCn1c(SCC(=O)Nc2nnc(-c3ccc(CS(C)(=O)=O)cc3)s2)nnc1-c1ccc(F)cc1 [Example 54, 2-{[4-ethyl-5-(4-fluorophenyl)-4H-1,2,4-triazol-3-yl]sulfanyl}-N-{5-[4-(methanesulfonylmethyl)phenyl]-1,3,4-thiadiazol-2-yl}acetamide] | 901 |
| COc1ccccc1-c1nnc(NC(=O)CSc2nnc(-c3ccc(F)cc3)n2C)s1 [Example 4, 2-{[5-(4-Fluorophenyl)-4-methyl-4H-1,2,4-triazole-3-yl]sulfanyl}-N-[5-(2-methoxyphenyl)-1,3,4-thiadizole-2-yl]-acetamide] | 4740 |
| CCn1c(SCC(=O)Nc2nnc(-c3ccc(F)cc3)s2)nnc1-c1cccc(OC)c1 [Example 25, 2-{[4-Ethyl-5-(3-methoxyphenyl)-4H-1,2,4-triazol-3-yl]sulfanyl}-N-[5-(4-fluorohenyl)-1,3,4-thiadiazol-2-yl]acetamide] | 375 |
| CCn1c(SCC(=O)Nc2nnc(-c3ccc(OS(C)(=O)=O)cc3)s2)nnc1-c1ccc(F)cc1 [Example 36, 4-[5-(2-{[4-Ethyl-5-(4-fluorophenyl)-4H-1,2,4-triazol-3-yl]sulfanyl}acetamido)-1,3,4-thiadiazol-2-yl]phenyl methanesulfonate] | 129 |
| CCn1c(SCC(=O)Nc2nnc(-c3ccc(F)c(F)c3)s2)nnc1-c1ccc(F)cc1 [Example 46, N-[5-(3,4-difluorophenyl)-1,3,4-thiadiazol-2-yl]-2-{[4-ethyl-5-(4-fluorophenyl)-4H-1,2,4-triazol-3-yl]sulfanyl}acetamide] | 385 |
